Here are results for 15 molecules from paper PMC9332756, “Exploration of Diazaspiro Cores as Piperazine Bioisosteres in the Development of σ2 Receptor Ligands” (International Journal of Molecular Sciences, 2022).

The structures appear in SMILES notation.

Assay [1] concerns the target T1, σ1R (Cavia porcellus, UniProt Q60492).
T1 construct: from tissue; host or cells: Guinea pig brain homogenate
Nature of the assay: σ1R radioligand binding assay with [3H]-(+)-pentazocine, Guinea pig brain homogenates. Conditions: mean ± SEM, at least three experiments. How it is done:
(§1) Radioligand binding assays were conducted using [^125I]RHM-4 with rat liver homogenates for σ2R-binding properties and a σ1R assay using [^3H]-(+)-pentazocine with Guinea pig brain homogenates. Evaluation of the compounds in the in vitro radioligand binding studies was conducted using a two-step process. […] Compounds displaying ≥ 50% displacement of radioligand binding in σ1 and σ2 assays (Table 1) were chosen for full competition studies using 10 different concentrations of the displacer. A representative competition curve at σ1 and σ2 receptors is shown for compound 2t in Figure 2.
(§2) For screening, [^3H]-(+)-pentazocine (~50,000 cpm) or [^125I]RHM-4 (~200,000 cpm) was mixed with 100 nM of tested compounds. Guinea pig brain homogenates (100 µg) or rat liver homogenates (15 µg) were added to mixture and incubated at 37 °C for 90 min. The mixture was filtered by harvester and washed 3 times using cold washing buffer (10 mM Tris-HCl, 150 mM NaCl). Collected filter was mixed with 3 mL of microscintTM20 and counted 1 min/well using beta counter. […] After that, protein was added and incubated at 37 °C for 90 min. The bound form was filtered by Whatman CF/C filter which was soaked in 1% of polyethyleneimine (PEI) in DW and then filters were washed tree times with cold washing buffer. The non-specific binding was determined in the presence of 10 µM of haloperidol or cold RHM-4. Filter was collected and read by scintillation counting (MicroBeta2 ®, PerkinElmer, Beaconsfield, UK) or gamma counter (PerkinElmer, Beaconsfield, UK). The data were analyzed using PRISM 8 (GraphPad Inc., San Diego, CA, USA).

Assay [2] deals with T2, σ2R (Rattus norvegicus, UniProt Q5U3Y7).
T2 construct: from tissue; host or cells: rat liver homogenate
T2 sequence (Q5U3Y7 1-176): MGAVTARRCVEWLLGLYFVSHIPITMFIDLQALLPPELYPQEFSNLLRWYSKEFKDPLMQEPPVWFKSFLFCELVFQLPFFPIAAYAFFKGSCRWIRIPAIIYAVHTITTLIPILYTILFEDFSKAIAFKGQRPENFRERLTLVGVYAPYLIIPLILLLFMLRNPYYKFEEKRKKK
Kind of assay: σ2R radioligand binding assay with [125I]RHM-4, rat liver homogenates. Conditions: for Ki: rat liver homogenates, [125I]RHM-4, mean ± SEM, at least three experiments; for σ1/σ2 Ratio: ratio of Ki σ1R to Ki σ2R. How it is done: as §1, §2

Assay [3] addresses T2, σ2R. The description is as above. Conditions: three-point screening assay (10 nM, 100 nM, 1 μM).
Assay [4] has as its target σ2R. The conditions noted are these: Figure 1; cited from earlier work.
Assay [5] has as its target σ1R. The conditions noted are these: Figure 1; cited from earlier work.

T1 sequence (Q60492 whole entry): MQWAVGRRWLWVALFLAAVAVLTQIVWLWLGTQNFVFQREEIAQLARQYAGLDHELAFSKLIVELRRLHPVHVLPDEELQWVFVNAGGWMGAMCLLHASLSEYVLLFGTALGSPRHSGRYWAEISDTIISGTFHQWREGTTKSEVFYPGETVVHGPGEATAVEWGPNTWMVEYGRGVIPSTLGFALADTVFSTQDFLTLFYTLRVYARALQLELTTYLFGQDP

`Cn1c(=O)n(CCCCN2CC3(C2)CN(c2ccc(F)cc2)C3)c2ccccc21` [Compound 2o] gave a Ki at σ1R [1] of 45.9 ± 6.8 nM. For the same molecule, at σ2R [2], affinity was put at a Ki of 40 ± 3.2 nM and the “σ1/σ2 Ratio” value turned out to be 1.1.
Taken in the same sequence, the figures for `Cn1c(=O)n(CCCCN2CC3CC2CN3c2ccc(F)cc2)c2ccccc21` (stereo not shown) [Compound 2r] were 712 ± 135 nM, 10.7 ± 1.8 nM and 66.
For the molecule `Cn1c(=O)n(CCCCN2CC3CCC(C2)N3c2ccc(F)cc2)c2ccccc21` [Compound 2q], at σ2R [3], the “affinity for the σ2R (in words)” value is recorded as “low affinity”.
Turning to `Fc1ccc(-n2cc(CCCCN3CCC4(CC3)OCc3ccccc34)c3ccccc32)cc1` [Siramesine], the Ki is 0.12 nM at σ2R [4] and 17 nM at σ1R [5].
On to `Cn1c(=O)n(CCCCN2CCCN(c3ccc(F)cc3)CC2)c2ccccc21` [Compound 2t], for which, at σ1R [1], the Ki worked out at 255 ± 29.9 nM. At σ2R [2], the Ki amounted to 3.8 ± 0.9 nM and the “σ1/σ2 Ratio” value was found to be 67.
As for `Cn1c(=O)n(CCCCN2CC3CCN(c4ccc(F)cc4)C3C2)c2ccccc21` (stereo not shown) [Compound 2s], the “affinity for the σ2R (in words)” value on σ2R [3] was “low affinity”.
In the case of `Cn1c(=O)n(CCCCN2CCC3(CC2)CCN(c2ccccc2F)CC3)c2ccccc21` [Compound 2e], at σ1R [1], the Ki amounted to 659 ± 84.2 nM. At σ2R [2], the Ki was determined as 24.4 ± 3.3 nM and the “σ1/σ2 Ratio” value was found to be 27.
As to `COc1cc2c(cc1OC)CN(CCCCNC(=O)c1cc(I)cc(OC)c1OC)CC2` [RHM-4], the Ki on σ2R [4] is 1 nM; on σ1R [5], 554 nM.
`Cn1c(=O)n(CCCCN2CC3(C2)CN(c2ccccc2F)C3)c2ccccc21` [Compound 2n] had a Ki at σ1R [1] of 20.5 ± 3.3 nM. Besides, on σ2R [2], the Ki came out at 41.8 ± 7.5 nM and the “σ1/σ2 Ratio” value is given as 0.5.
As to `Cn1c(=O)n(CCCCN2CCN(c3cccc(F)c3)CC2)c2ccccc21` [Compound 7, reference compound], the values for the Ki on σ1R [1] and on σ2R [2] were 702 ± 272 nM and 2 ± 0.6 nM, respectively. Besides, the “σ1/σ2 Ratio” value at σ2R [2] was determined as 351.
As for `COc1ccc(C)cc1NC(=O)OC1CC2CCCC(C1)N2CCCCCCN` (stereo not shown) [SV 119], the Ki at σ2R [4] was 5.19 ± 0.8 nM; at σ1R [5], 1420 ± 439 nM.
Turning to `COc1cccc2c1CCCC2CCCN1CCN(C2CCCCC2)CC1` (stereo not shown) [PB28, 1-cyclohexyl-4-[3-(5-methoxy-1,2,3,4-tetrahydronaphthalen-1-yl)propyl]piperazine], the figures for the Ki at σ2R [4] and on σ1R [5] were 0.68 ± 0.2 nM and 0.38 ± 0.1 nM, respectively.
Consider `CCN(c1ccc(F)cc1)C1CN(CCCCn2c(=O)n(C)c3ccccc32)C1` [Compound 2u], for which the Ki on σ1R [1] came out at 279 ± 30.7 nM; on σ2R [2], 18.8 ± 1.6 nM. In addition, the “σ1/σ2 Ratio” value at σ2R [2] is reported as 15.
Regarding `Cn1c(=O)n(CCCCN2CC3CCCC(C2)N3c2ccc(F)cc2)c2ccccc21` [Compound 2p], the “affinity for the σ2R (in words)” value at σ2R [3] was “low affinity”.
In turn, `Cn1c(=O)n(CCCCN2CCN(c3ccc(F)cc3)CC2)c2ccccc21` [Compound 1, reference compound] yielded a Ki at σ1R [1] of 251 ± 48.1 nM. Also, the “σ1/σ2 Ratio” value at σ2R [2] amounted to 279.

As usually defined, the Ki is the dissociation constant of the complex between target and ligand, obtained from inhibition or displacement.
